According to patent publication US12448371B2, “Inhibitor compounds” (Cincera Therapeutics Pty Ltd, priority 2019, dated 2025):
Where two headings read alike, the source gives them in different places.

What was measured:
[1] = target: T1, Des1 (h) (Homo sapiens, UniProt O15121); assay: Measurement of Dihydroceramide Desaturase-1 (Des-1) activity in intact Jurkat cells labeled with DhCer-C6-NBD (HPLC); assay type: cell-based
T1 construct: endogenous in cells; host or cells: parental Jurkat cells
T1 sequence (O15121 1-323): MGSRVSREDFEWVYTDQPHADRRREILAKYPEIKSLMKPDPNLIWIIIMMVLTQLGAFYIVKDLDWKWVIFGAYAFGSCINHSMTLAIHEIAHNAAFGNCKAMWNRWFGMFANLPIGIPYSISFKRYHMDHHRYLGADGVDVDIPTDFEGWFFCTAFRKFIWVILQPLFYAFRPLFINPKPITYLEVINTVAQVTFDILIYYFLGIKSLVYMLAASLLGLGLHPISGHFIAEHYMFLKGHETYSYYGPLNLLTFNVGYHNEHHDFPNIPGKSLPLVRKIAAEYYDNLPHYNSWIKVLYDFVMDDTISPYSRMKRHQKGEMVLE
Method in brief: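 Intact parental Jurkat cells in 0.5% serum medium were labelled with DhCer-C6-NBD; cells harvested at 500×g and ceramides extracted. NBD-labelled substrate and product resolved by C18 reverse-phase HPLC and quantified by fluorescence (ex 465/em 530 nm) as a measure of Des-1 activity.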

[2] = T1/2 Human Liver Microsomes; assay type: in vitro ADME
Description: Some non-limiting illustrative examples are presented below in Table 3-1.

[3] = system: Connective Tissue Growth Factor (CTGF) gene expression; assay: Real time quantitative PCR in TGFβ-stimulated human hepatic stellate cells (LX2) to detect CTGF gene expression; assay type: cell-based; settings: LX-2, 5 μM, CTGF mRNA in TGFβ-stimulated LX2 cells vs vehicle control
Method: Real Time Quantitative Polymerase Chain Reaction in Human Hepatic Stellate Cells (LX2) to Detect Connective Tissue Growth Factor (CTGF) Gene Expression The hepatic stellate cell line, LX2 was maintained in DMEM (LifeTechnologies) with 2% heat-inactivated FBS, 100U penicillin (LifeTechnologies), 0.1 mg/mL streptomycin (LifeTechnologies), and 2 mM L-glutamine (LifeTechnologies) at 37° C. with 5% CO2. Cells were seeded into 6-well plates (200,000 cells per well, 2 mLs media) and grown overnight. The cells were changed to 2 mLs 0.5% FBS media for 24 hours prior to treatment. Treatments were added in 2 mLs fresh 0.5% FBS media (vehicle control, long/mL TGFβ alone (R&D Systems), 10 ng/mL TGFβ+inhibitors) and incubated for 24 hours. […] RNA was extracted using Qiagen RNeasy kit (cat #74104), according to manufacturer's instructions. RNA (1 μg) was used to generate cDNA using the Qiagen Quantitect Reverse Transcription Kit (cat #205311), and stored at -20° C. cDNA was diluted (1:25 final) and combined with Sybr Green (Qiagen cat #204143), forward and reverse primers (50 ng each) and run on Real Time PCR Thermocycler machine (RG-6000, Corbett) with the following PCR conditions: Hold 1: 50° C. for 2 min; Hold 2: 95° C. for 15 min; Cycling: 45 cycles of: 95° C. for 30 sec, 58° C. for 21 sec, 72° C. for 15 sec, Hold 3: 72° C. for 30 sec, Melt: 72° C. to 99° C. GAPDH primers (Forward: [NT]; Reverse: [NT] primers (Forward: [NT]; Reverse: [NT] primers available from Origene, cat #HP205671)].

[4] = system: TGF-β1-mediated αSMA expression; assay: Fibroblast-to-Myofibroblast Transition (FMT) in human lung cells derived from IPF patient donors; assay type: cell-based; settings: primary human bronchial fibroblasts from IPF donors; 8 concentrations up to 10 μM; FIG. 2
Method: Fibroblast-to-Myofibroblast Transition (FMT) in Human Lung Cells Derived from Idiopathic Pulmonary Fibrosis (IPF) Patient Donors
Lung-derived primary human bronchial fibroblasts (from IPF donors) were seeded at 3,000 cells per well in 96-well plates, and were grown over 5 days prior to treatment with the desired compounds (cell medium was refreshed at 48 h). Cells were then treated with 8 different concentrations of Compound 8 or 46, in semi-log dilutions starting from the top dosage of 10 μM (vehicle control: 0.1% DMSO; positive control: SB525334 and nintendanib). 1-hour post compound addition, the cells were stimulated with the addition of 1.25 ng/mL TGF-β1, and incubated for 72 hours. Cells were then fixed with 4% formaldehyde, then stained using […] and imaged via high-content analysis. The assay was conducted in biological duplicates. This in vitro FMT assay results were provided by Charles River Laboratories through a service agreement.

[5] = Table 3-1, comparison of W ring with and without nitrogen, read-out: Des1 IC50
[6] = intact Jurkat cells, given as concentration range, or <X / >X if measured at one concentration X only, read-out: Des1 (h) Jurkat IC50

## N=C(NO)c1ccc(Nc2ncc(-c3ccc(C(F)(F)F)cc3)o2)cc1
[1]; [5]
  IC50: 800 to 1000 nM
[2]
  half-life: 0.5 to 0.667 h

## O=C(NCC(O)CO)c1ccc(Nc2ncc(-c3ccc(C(F)(F)F)cc3)o2)cn1 (stereo not drawn)
[1]; [5]
  IC50: 1 to 10 nM
[2]
  half-life: 3.5 to 3.67 h

## N=C(NO)c1ccc(Nc2ncc(-c3ccc(C(F)(F)F)cc3)o2)cn1 [Example 8, 5-((5-[4-(Trifluoromethyl)phenyl]-1,3-oxazol-2-yl)amino)-N-hydroxy-pyridine-2-carboximidamide]
[1]; [6]
  IC50: 100 to 1000 nM
[3]
  inhibition at 5 µM: > 90%
[4]
  inhibition of TGF-β1-mediated αSMA expression in IPF donors: concentration-dependent inhibition

## N=C(NO)c1ccc(Nc2ncc(-c3ccc(C(F)(F)F)cn3)o2)cn1 [Example 46, N′-hydroxy-5-((5-(5-(trifluoromethyl)pyridin-2-yl)oxazol-2-yl)amino)-picolinimidamide]
[1]; [6]
  IC50: 100 to 1000 nM
[3]
  inhibition at 5 µM: > 90%
[4]
  inhibition of TGF-β1-mediated αSMA expression in IPF donors: concentration-dependent inhibition

## N/C(=N\O)c1ccc(Nc2ccn(-c3ccc(C(F)(F)F)cn3)n2)cn1 [Example 73, N′-Hydroxy-5-((1-(5-(trifluoromethyl)pyridin-2-yl)-1H-pyrazol-3-yl)amino)picolinimidamide]
[1]; [6]
  IC50: < 1000 nM
[3]
  inhibition at 5 µM: > 90%

## N/C(=N\O)c1ccc(Nc2ccn(-c3ccc(C(F)(F)F)cc3)n2)cn1 [Example 74, N′-Hydroxy-5-((1-(4-(trifluoromethyl)phenyl)-1H-pyrazol-3-yl)amino)picolinimidamide]
[1]; [6]
  IC50: < 1000 nM
[3]
  inhibition at 5 µM: 80 to 90%

## N/C(=N/O)c1ccc(Nc2cc(-c3ccc(C(F)(F)F)cn3)no2)cn1 [Example 75, N′-Hydroxy-5-((3-(5-(trifluoromethyl)pyridin-2-yl)isoxazol-5-yl)amino)picolinimidamide]
[1]; [6]
  IC50: < 1000 nM
[3]
  inhibition at 5 µM: > 90%

## N/C(=N\O)c1ccc(Nc2nc(-c3ccc(C(F)(F)F)cc3)no2)cn1 [Example 82, N′-hydroxy-5-((3-(4-(trifluoromethyl)phenyl)-1,2,4-oxadiazol-5-yl)amino)picolinimidamide]
[1]; [6]
  IC50: < 1000 nM
[3]
  inhibition at 5 µM: > 90%

## N/C(=N\O)c1ccc(Nc2nc(-c3ccc(C(F)(F)F)cn3)no2)cn1 [Example 84, N′-Hydroxy-5-((3-(5-(trifluoromethyl)pyridin-2-yl)-1,2,4-oxadiazol-5-yl)amino)picolinimidamide]
[1]; Jurkat cells, 1 μM
  inhibition at 1 µM: 45%
[1]; [6]
  IC50: > 1000 nM
[3]
  inhibition at 5 µM: 80 to 90%

## N/C(=N\O)c1ccc(Nc2nc(-c3ccc(OC(F)(F)F)cc3)no2)cn1 [Example 86, N′-Hydroxy-5-((3-(4-(trifluoromethoxy)phenyl)-1,2,4-oxadiazol-5-yl)amino)picolinimidamide]
[1]; [6]
  IC50: < 1000 nM
[3]
  inhibition at 5 µM: > 90%

## N/C(=N\O)c1ccc(Nc2cc(-c3ccc(C(F)(F)F)cc3)no2)cn1 [Example 89, N′-hydroxy-5-((3-(4-(trifluoromethyl)phenyl)isoxazol-5-yl)amino)picolinimidamide]
[1]; [6]
  IC50: < 1000 nM
[3]
  inhibition at 5 µM: > 90%

## N=C(NO)c1ccc(Nc2ncc(-c3ccc(C(F)(F)F)cc3)o2)cn1 [drawing 414]
[1]; [5]
  IC50: 100 to 200 nM
[2]
  half-life: 1.5 to 1.67 h

## N/C(=N\O)c1ccc(Nc2ncn(-c3ccc(C(F)(F)F)cc3)n2)cn1 [drawing 416]
[1]; [5]
  IC50: 70 to 80 nM
[2]
  half-life: 2.83 to 3 h

## N=C(NO)c1ccc(Nc2ncc(-c3ccc(C(F)(F)F)cn3)o2)cn1 [drawing 417]
[1]; [5]
  IC50: 400 to 500 nM
[2]
  half-life: 3.17 to 3.33 h

## N/C(=N\O)c1ccc(Nc2ncc(-c3ccc(C(F)(F)F)cc3)o2)nn1 [drawing 418]
[1]; [5]
  IC50: 1 to 10 nM
[2]
  half-life: 2.5 to 2.83 h
